Measured values as given in paper PMC6368403, “Identification of a bilirubin receptor that may mediate a component of cholestatic itch” (eLife, 2019).
“And” between values parts separate entries of the source, which are not always exact repeats. Identical values can stand only once. Numbered stars: 1 amine (or outer) side, 2 acyl side, 3 side chain; on linkers, the order of the positions; unused ones are H or OH. Bridge positions count the residues as written; N and C are the ends. Square brackets hold non-standard residues; d marks the D form. Peptide text beside a SMILES is read from it. X1 = CC(=O)NC(C(=O)OC(C(C)C)C(N[*:1])C(=O)[*:2])C(O)C(C)C; PhLac = O=C(O)[CH](O)Cc1ccccc1; NMeT = CN[CH](C(=O)O)[CH](C)O; NMeA = CN[CH](C)C(=O)O; NMeDha = C=C(NC)C(=O)O

Tests used:
[1] = molecular target: T1, MRGPRA1 (Mus musculus, UniProt Q91WW5); assay: Ca2+ imaging and concentration-Ca2+ response (EC50) in HEK293 cells expressing MRGPRA1; format: cell-based; conditions: for Effect on bilirubin-induced calcium responses: MRGPRA1 cells pre-incubated with 10 µM inhibitor for 30 min, 50 µM bilirubin; for Ca2+ response (concentration-response curve): MRGPRA1, triplicate wells (Fig 2D)
T1 construct: expressed in transfected cells
T1 sequence (Q91WW5 1-304): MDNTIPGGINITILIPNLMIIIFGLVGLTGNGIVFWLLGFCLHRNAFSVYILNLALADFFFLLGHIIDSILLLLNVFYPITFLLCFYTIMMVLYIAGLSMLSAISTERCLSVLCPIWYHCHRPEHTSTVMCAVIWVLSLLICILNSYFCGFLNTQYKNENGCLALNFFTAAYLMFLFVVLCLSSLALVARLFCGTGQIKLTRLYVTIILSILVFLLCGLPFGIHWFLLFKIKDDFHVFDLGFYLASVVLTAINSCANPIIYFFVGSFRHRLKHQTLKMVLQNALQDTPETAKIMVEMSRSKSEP
Method: (§1) All cultured cells were maintained in DMEM supplemented with 10% FBS and 1% Penicillin/Streptomycin at 37°C, 5% CO2. All data included were generated from cells tested for mycoplasma and found to be negative. Cells were imaged in calcium imaging buffer (CIB; 10 mM HEPES, 1.2 mM NaHCO3, 130 mM NaCl, 3 mM KCl, 2.5 mM CaCl2, 0.6 mM MgCl2, 20 mM glucose, and 20 mM sucrose at pH 7.4 and 290–300 mOsm). To monitor changes in intracellular [Ca^2+] ([Ca^2+]i), cells were loaded with either Fura 2-AM (HEK293 cells) or Fluo 4-AM (DRG neurons and mast cells) for 30 min in the dark at 37°C in CIB just prior to imaging. With Fura 2-AM, emission at 510 nm was monitored from excitation at both 340 nm and 380 nm. With Fluo 4-AM, emission at 520 nm was monitored from excitation at 488 nm. Cells were identified as responding if the intracellular [Ca^2+] rose by either 50% compared to baseline or 50% compared to the [Ca^2+]i change assayed during addition of 50 mM KCl (neurons only). Damaged, detached, high-baseline, and motion-activated cells were excluded from analysis.
(§2) In initial screens, HEK293 cells stably expressing the murine G-protein alpha-subunit Gα15, a unique Gα protein that non-selectively couples a large variety of GPCRs to phospholipase C ^30, were plated on poly-D-lysine-coated coverslips and transiently transfected with constructs encoding the MRGRPR of interest. 12–24 hr later, cells were loaded with the Fura 2-AM. Unless otherwise specified, compounds were perfused into the imaging chamber for approximately thirty seconds after a baseline period was established. Response was then monitored at 5 s intervals for an additional 60 s.
(§3) HEK293 cells stably expressing either MRGPRA1, MRGPRX4, and MRGRPC11 were seeded in poly-D-lysine-coated 96-well plates at 10,000 cells/well. Cells were loaded with Fura 2–AM, washed twice, and maintained in CIB. Haem metabolites were freshly dissolved in DMSO in dim light and then diluted into a buffer comprised of 20 mM Tris and 150 mM NaCl at pH 8.8. Potential changes in pH were evaluated prior to each experiment. EC50 values were determined from dose-responses performed in triplicate, repeated 2–4 times. To determine potential antagonism by QWF against bilirubin, cells were treated with varying doses of QWF for 1 min in CIB prior to application of agonist.
(§4) HEK293 stable cell lines expressing GFP-tagged MRGPRA3, MRGPRC11, MRGPRD, MRGPRX1, and MRGPRX2 were generated in previously described reports ([Liu et al., 2009]; [Liu et al., 2012]; [McNeil et al., 2015]). Briefly, plasmids containing the receptor of interest were transfected into HEK cells using Lipofectamine 3000. After 3 days, cells were then selected using 0.5 mg/mL G418. After 3 weeks, monoclonal colonies were established and each the highest expressing clones were identified. For this study, Mrgpra1 and MRGPRX4 were inserted into pEGFP-N1 and transfected into HEK293 cells. MRGPR-positive cells were selected using 0.5 mg/mL G418 for three weeks, after which GFP-positive cells were sorted by FACS and monoclonally expanded. Two lines expressing similar levels of MRGPRA1 and MRGPRX4, as measured by GFP fluorescence, were selected for study.

[2] = molecular target: T2, MRGPRX4 (Homo sapiens, UniProt Q96LA9); assay: Ca2+ imaging and concentration-Ca2+ response (EC50) in HEK293 cells expressing MRGPRX4; format: cell-based; conditions: for Effect on bilirubin-induced calcium responses: MRGPRX4 cells pre-incubated with 10 µM inhibitor for 30 min, 50 µM bilirubin; for Ca2+ response (concentration-response curve): MRGPRX4, triplicate wells (Fig 2I)
T2 construct: expressed in transfected cells
T2 sequence (Q96LA9 whole entry): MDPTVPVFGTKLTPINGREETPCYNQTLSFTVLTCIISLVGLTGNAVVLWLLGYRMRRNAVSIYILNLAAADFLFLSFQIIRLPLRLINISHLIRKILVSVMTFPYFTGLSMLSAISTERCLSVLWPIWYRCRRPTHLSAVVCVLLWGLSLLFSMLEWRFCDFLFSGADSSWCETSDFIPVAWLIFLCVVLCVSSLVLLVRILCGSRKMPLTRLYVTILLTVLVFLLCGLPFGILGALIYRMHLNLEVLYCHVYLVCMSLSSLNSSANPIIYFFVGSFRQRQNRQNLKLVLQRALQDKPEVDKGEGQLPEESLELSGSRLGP
Method: as §1, §2, §3, §4

[3] = system: mice; assay: Scratching bouts after subcutaneous injection into the nape of the neck / back; format: in vivo, mouse; conditions: for Scratching bouts binned according to 5 min intervals (time course of itch behavior): one column per mouse, values of a mouse sum to 1 (Fig 1B)
Method: All applicable behavioral tests were performed and analysed with the experimenter blind to genotype. […] On the day before the experiment, animals were placed in the test chamber for 30 min before being subjected to a series of three mock injections with 5 min break periods in between. On the day of the experiment, animals were first allowed to acclimatize to the test chamber for 10 min before injection. […] A bout of scratching was defined as a continuous scratching movement with either hindpaw directed at the area of the injection site. In the cheek injection model, a wipe was defined as a single forepaw stroking the site of the injection. Use of both forepaws on the face or cheek was considered as grooming behavior. […] For H1R block, 30 mg/kg of cetirizine HCl (pH 7.4) was given intraperitoneally thirty minutes prior to injection of bilirubin. Licking behavior was quantified in seconds and identified as the licking of the toes or footpad of the hind paw site of injection that was neither preceded nor followed by licking of any other portion of the body.

COc1ccc2c(c1)CC[C@@H]1[C@@H]2CC[C@]2(C)[C@@H](NCCCCCCN3C(=O)C=CC3=O)CC[C@@H]12 [U73122, reference compound]
Effect on bilirubin-induced calcium responses [1]: abolished bilirubin-induced calcium responses | Effect on bilirubin-induced calcium responses [2]: inhibited bilirubin-induced calcium responses

O=C(O)COCCN1CCN(C(c2ccccc2)c2ccc(Cl)cc2)CC1 (stereo not shown) [cetirizine]
Effect on scratching of mice injected with bilirubin ([3]; 30 mg/kg i.p. 30 min prior to bilirubin at the nape): failed to alleviate scratching behavior

C=CC1=C(C)/C(=C/C2=NC(=C\c3[nH]c(/C=C4\NC(=O)C(C)=C4C=C)c(C)c3CCC(=O)O)/C(CCC(=O)O)=C2C)NC1=O [biliverdin]
Ca2+ response (concentration-response curve) ([1]; [Ligand] 7.8125e-6 M): 0 | Ca2+ response (concentration-response curve) ([1]; [Ligand] 1.5625e-5 M): 0 | Ca2+ response (concentration-response curve) ([1]; [Ligand] 3.125e-5 M): 0 | Ca2+ response (concentration-response curve) ([1]; [Ligand] 6.25e-5 M): 0 | Ca2+ response (concentration-response curve) ([1]; [Ligand] 0.000125 M): 0 | Ca2+ response (concentration-response curve) ([1]; [Ligand] 0.00025 M): 0 | Ca2+ response (concentration-response curve) ([1]; [Ligand] 0.0005 M): 0 | Ca2+ response (concentration-response curve) ([1]; [Ligand] 0.001 M): 0 | Ca2+ response (concentration-response curve) ([2]; [Ligand] 7.8125e-6 M): 0 | Ca2+ response (concentration-response curve) ([2]; [Ligand] 1.5625e-5 M): 0 | Ca2+ response (concentration-response curve) ([2]; [Ligand] 3.125e-5 M): 0 | Ca2+ response (concentration-response curve) ([2]; [Ligand] 6.25e-5 M): 0 | Ca2+ response (concentration-response curve) ([2]; [Ligand] 0.000125 M): 0 | Ca2+ response (concentration-response curve) ([2]; [Ligand] 0.00025 M): 0 | Ca2+ response (concentration-response curve) ([2]; [Ligand] 0.0005 M): 0 | Ca2+ response (concentration-response curve) ([2]; [Ligand] 0.001 M): 0 | Scratching behavior ([3]; metabolite injected into mice (Fig 1D)): did not induce scratching

C=C1C(=O)NC(C)C(=O)N(C)C(C)C(=O)NC(C(OC(=O)C(NC(C)=O)C(O)C(C)C)C(C)C)C(=O)N(C)C(C(C)OC)C(=O)OC(C)C(NC(C)=O)C(=O)OC(Cc2ccccc2)C(=O)N1C (stereo not shown) [YM-254890, reference compound] (Ac-T[PhLac][NMeDha]A[NMeA][X1][NMeT](Me); ester 1-C; configuration not given here)
Effect on bilirubin-induced calcium responses [1]: abolished bilirubin-induced calcium responses | Effect on bilirubin-induced calcium responses [2]: inhibited bilirubin-induced calcium responses

NCCc1c[nH]cn1 [Histamine, histamine]
Scratching bouts binned according to 5 min intervals (time course of itch behavior) ([3]; time 5 min): 0.02985 and 0.0102 and 0 (10×) and 0.134 | Scratching bouts binned according to 5 min intervals (time course of itch behavior) ([3]; time 10 min): 0.3881 and 0.5714 and 0.08333 and 0.1818 and 0.3333 and 0.527 and 0.02857 and 0.1765 and 0.2143 and 0.1923 and 0.3918 and 0.5938 and 0.4348 | Scratching bouts binned according to 5 min intervals (time course of itch behavior) ([3]; time 15 min): 0.2985 and 0.07143 and 0.8333 and 0.6545 and 0.625 and 0.3919 and 0.4286 and 0.2353 and 0.3367 and 0.3846 and 0.1031 and 0 and 0.5435 | Scratching bouts binned according to 5 min intervals (time course of itch behavior) ([3]; time 20 min): 0.2687 and 0.1633 and 0 (2×) and 0.1636 and 0.04167 and 0.08108 and 0.2286 and 0.4118 and 0.08163 and 0.1154 and 0.2344 and 0.02174 | Scratching bouts binned according to 5 min intervals (time course of itch behavior) ([3]; time 25 min): 0.01493 and 0.1837 and 0.08333 and 0 (4×) and 0.3143 and 0.1765 and 0.1939 and 0.3077 and 0.2474 and 0.1719 | Scratching bouts binned according to 5 min intervals (time course of itch behavior) ([3]; time 30 min): 0 (11×) and 0.1735 and 0.1237

CCN(CC)CCCC(C)Nc1ccnc2cc(Cl)ccc12 (stereo not shown) [Chloroquine, chloroquine]
Scratching bouts binned according to 5 min intervals (time course of itch behavior) ([3]; time 5 min): 0.201 and 0.03846 and 0.1149 and 0.1078 and 0.05405 and 0 (2×) and 0.1374 and 0.04255 and 0.2424 and 0.1529 | Scratching bouts binned according to 5 min intervals (time course of itch behavior) ([3]; time 10 min): 0.2353 and 0.1065 and 0.2213 and 0.1121 and 0.1459 and 0.2993 and 0.3626 and 0.4113 and 0.6263 and 0.2639 and 0.4204 | Scratching bouts binned according to 5 min intervals (time course of itch behavior) ([3]; time 15 min): 0.348 and 0.3787 and 0.1447 and 0.2155 and 0.3676 and 0.3673 and 0.4011 and 0.3191 and 0 and 0.5 and 0.2548 | Scratching bouts binned according to 5 min intervals (time course of itch behavior) ([3]; time 20 min): 0.1618 and 0.2426 and 0.2681 and 0.2284 and 0.1838 and 0.1837 and 0.0989 and 0.09929 and 0.1212 and 0 (2×) | Scratching bouts binned according to 5 min intervals (time course of itch behavior) ([3]; time 25 min): 0.05392 and 0.142 and 0.1447 and 0.1336 and 0.09189 and 0.1361 and 0 (3×) and 0.2361 and 0.172 | Scratching bouts binned according to 5 min intervals (time course of itch behavior) ([3]; time 30 min): 0 (4×) and 0.09172 and 0.1064 and 0.2026 and 0.1568 and 0.01361 and 0.1277 and 0.0101
